System: Porcine Smooth Muscle Cell
Assay: Effects of compounds on cell proliferation using 3H thymidine incorporation
Type: cell-based
Settings: porcine smooth muscle cells, serum/growth factor stimulated; for Porcine Smooth Muscle Cell Antiproliferation, percent inhibition: @ 500 μM; for IC50: 24–36 h, read-out: Porcine Smooth Muscle Cell Antiproliferation IC50
Protocol: The compounds of this invention are useful as antiproliferative agents. The following procedures show the evaluation of representative compounds of this invention in standard pharmacological test procedure which measured ability of the evaluated compound to inhibit smooth muscle cell proliferation
Effects of Compounds on Cell Proliferation Using ^3H Thymidine Incorporation
Human and porcine smooth muscle cells were tested in early passage (generally passage 3–7) at sub-confluent conditions. Cultures were grown in 16 mm (24 well) multi-well culture dishes in medium 199 supplemented with 10% fetal bovine serum and 2% antibiotic/antimycotic. At sub-confluence, the cells were placed in a defined serum free medium (AIM-V; Gibco) for 24–48 h prior to initiating the experimental protocol. […] Compounds were added to each well at 50 fold dilution (20 μL/well) and the plates were incubated for 24–36 h at 37° C. in 5% CO2. Compounds were initially dissolved in 50% ethanol and serially diluted into media. Compounds were routinely evaluated at concentrations from 1 to 100 μM. As a control, grade II porcine intestinal mucosal heparin (sodium salt) was routinely evaluated in all cell preparations at concentrations from 0.1 to 100 μg/mL. At the completion of the test procedure, plates were placed on ice, washed three times with ice cold phosphate buffered saline (PBS) and incubated in ice cold 10% trichloroacetic acid (TCA) got 30 min to remove acid soluble proteins. Solution was transferred to scintillation vials containing 0.4 N HCl (500 μL/vial to neutralize NaOH) and each well was rinsed two times with water (500 μL) for a total volume of 2 mL/vial. Data was obtained, in triplicate, for both control and experimental samples. Control (100%) data was obtained from maximally stimulated cells, as the result of growth factor or serum stimulation. Experimental data was obtained from cells maximally stimulated with growth factor or serum and treated with compound. Data are expressed as an IC50 or percent inhibition in Table I below.

Molecule | Porcine Smooth Muscle Cell Antiproliferation, percent inhibition | IC50
N-Benzyl-octa-O-sulfo-lactobionamide Octasodium Salt [Example 2] | 45% @ 500 | –
CC(=O)OC[C@H]1O[C@@H](O[C@@H]([C@H](OC(C)=O)[C@@H](OC(C)=O)C(=O)NCc2ccccc2)[C@@H](COC(C)=O)OC(C)=O)[C@H](OC(C)=O)[C@@H](OC(C)=O)[C@H]1OC(C)=O [Example 1, N-Benzyl-octa-O-acetyl-lactobionamide] | – | 118 µM
CC(=O)OC[C@H]1O[C@@H](O[C@@H]([C@H](OC(C)=O)[C@@H](OC(C)=O)C(=O)NCc2ccc(N)cc2)[C@@H](COC(C)=O)OC(C)=O)[C@H](OC(C)=O)[C@@H](OC(C)=O)[C@H]1OC(C)=O [Example 4, N-(4-Amino-benzyl)-octa-O-acetyl-lactobionamide] | 30% @ 500 | –
CC(=O)OC[C@H]1O[C@@H](O[C@@H]([C@H](OC(C)=O)[C@@H](OC(C)=O)C(=O)NCc2cccc(N)c2)[C@@H](COC(C)=O)OC(C)=O)[C@H](OC(C)=O)[C@@H](OC(C)=O)[C@H]1OC(C)=O [Example 5, N-(3-Amino-benzyl)-octa-O-acetyl-lactobionamide] | 12% @ 500 | –
N-[3-(Acetylamino)-benzyl]-octa-O-sulfo-lactobionamide Octasodium Salt [Example 7] | – | 122 µM

From patent publication US7081448B2, “Benzyllactobionamides as inhibitors of smooth muscle cell proliferation” (Wyeth, priority 1998, dated 2006)
